ChEMBL document CHEMBL1123158, “Synthesis and quantitative structure-activity relationships of antiallergic 2-hydroxy-N-1H-tetrazol-5-ylbenzamides and N-(2-hydroxyphenyl)-1H-tetrazole-5-carboxamides” (J Med Chem, 1986)

What was measured:
[1] = test system: Rattus norvegicus; assay: Antiallergic activity in the rat PCA test following iv administration relative to M&B 22,948, the dose of which was 0.1 mg/kg for 100% inhibition; format: functional
[2] = species: Rattus norvegicus; assay: Biological activity; format: functional

SMILES	Relative activity [1]	Log [MrI] [2]
CC(=O)c1cc(Cl)cc(C(=O)Nc2nn[nH]n2)c1O	0.05	1.149
Cc1cc(NC(=O)c2nn[nH]n2)c(O)c(C(N)=O)c1	5	3.118
CCCc1cc(NC(=O)c2nn[nH]n2)c(O)c(C(C)=O)c1	10	3.461
COc1cccc(C(=O)Nc2nn[nH]n2)c1O	1	2.371
COc1cc([N+](=O)[O-])cc(C(=O)Nc2nn[nH]n2)c1O	1	2.447
N#Cc1ccc(O)c(C(=O)Nc2nn[nH]n2)c1	0.5	2.061
CC(=O)c1cc(C)cc(C(=O)Nc2nn[nH]n2)c1O	1	2.417
CCc1cc(OC)c(O)c(C(=O)Nc2nn[nH]n2)c1	1	2.42
Cc1cc(NC(=O)c2nn[nH]n2)c(O)c(C(=O)Cc2ccccc2)c1	0.1	3.528
COc1cc(C)cc(NC(=O)c2nn[nH]n2)c1O	2.5	2.794
O=C(Nc1nn[nH]n1)c1cc(-c2ccccc2)ccc1O	0.01	0.449
COc1cc(NC(=O)c2nn[nH]n2)c(O)c(C(C)=O)c1	10	3.443
CCCC(=O)c1cc(C)cc(NC(=O)c2nn[nH]n2)c1O	4	3.063
CC(=O)c1cc(Cl)cc(NC(=O)c2nn[nH]n2)c1O	7	3.295
CCCc1cc(C(C)=O)c(O)c(C(=O)Nc2nn[nH]n2)c1	2	2.762
COc1cc(Br)cc(C(=O)Nc2nn[nH]n2)c1O	0.2	1.798
CC(=O)c1cc([N+](=O)[O-])cc(NC(=O)c2nn[nH]n2)c1O	5	3.164
CC(=O)c1cc([N+](=O)[O-])cc(C(=O)Nc2nn[nH]n2)c1O	1	2.465
O=C(Nc1ccccc1O)c1nn[nH]n1	1	2.31
C/C(=N\O)c1cc(C)cc(NC(=O)c2nn[nH]n2)c1O	35	3.985
CC(=O)c1cc(NC(=O)c2nn[nH]n2)c(O)c(C(C)=O)c1	0.5	2.16
CC(=O)c1cc(C(C)(C)C)cc(NC(=O)c2nn[nH]n2)c1O	0.5	2.17
COc1cc(OC)c(O)c(C(=O)Nc2nn[nH]n2)c1	0.5	2.122
COc1cc(NC(C)=O)cc(C(=O)Nc2nn[nH]n2)c1O	0.02	0.766

SMILES	Relative activity [1]	Log [MrI] [2]
CS(=O)(=O)c1ccc(O)c(C(=O)Nc2nn[nH]n2)c1	0.04	1.053
Cc1ccc(O)c(C(=O)Nc2nn[nH]n2)c1	0.1	1.34
COc1ccc(O)c(C(=O)Nc2nn[nH]n2)c1	0.2	1.672
Cc1cc(NC(=O)c2nn[nH]n2)c(O)c(C(=O)C(F)(F)F)c1	0.2	1.8
CN(C)S(=O)(=O)c1ccc(O)c(C(=O)Nc2nn[nH]n2)c1	0.05	1.193
Cc1cc(NC(=O)c2nn[nH]n2)c(O)c(C(=O)N(C)C)c1	1	2.463
O=C(Nc1nn[nH]n1)c1ccccc1O	0.1	1.312
CC(=O)c1cc(Br)cc(C(=O)Nc2nn[nH]n2)c1O	0.05	1.212
CCc1cc(C(C)=O)c(O)c(C(=O)Nc2nn[nH]n2)c1	1	2.439
CO/N=C(\C)c1cc(C)cc(NC(=O)c2nn[nH]n2)c1O	10	3.463
CC(C)(C)c1ccc(O)c(C(=O)Nc2nn[nH]n2)c1	0.01	0.417
CC(=O)c1cc(C)cc(NC(=O)c2nn[nH]n2)c1O	10	3.417
CC(=O)c1cc(CC(C)C)cc(C(=O)Nc2nn[nH]n2)c1O	0.2	1.783
CCC(=O)c1cc(C#N)cc(NC(=O)c2nn[nH]n2)c1O	5	3.156
O=C(Nc1nn[nH]n1)c1cc(C(F)(F)F)ccc1O	0.02	0.737
CN(C)S(=O)(=O)c1ccc(O)c(NC(=O)c2nn[nH]n2)c1	0.25	1.892
COc1cc(Br)cc(NC(=O)c2nn[nH]n2)c1O	2	2.798
CC(=O)c1cccc(NC(=O)c2nn[nH]n2)c1O	20	3.694
CCC(=O)c1cc(C)cc(NC(=O)c2nn[nH]n2)c1O	5	3.139
O=C(Nc1nn[nH]n1)c1cc(F)ccc1O	0.1	1.348
COc1cc(C)cc(C(=O)Nc2nn[nH]n2)c1O	0.5	2.095
CC(=O)c1cccc(C(=O)Nc2nn[nH]n2)c1O	1	2.393
Cc1cc(NC(=O)c2nn[nH]n2)c(O)c(C(=O)C(C)C)c1	5	3.16
CCc1cc(C(=O)Nc2nn[nH]n2)c(O)c(/C(C)=N/OC)c1	3.5	3.025

SMILES	Relative activity [1]	Log [MrI] [2]
CC(=O)c1cc(S(C)(=O)=O)cc(NC(=O)c2nn[nH]n2)c1O	2	2.813
Cc1cc(NC(=O)c2nn[nH]n2)c(O)c(C(=O)C2CC2)c1	5	3.157
CC(=O)c1cc(C#N)cc(NC(=O)c2nn[nH]n2)c1O	10	3.435
COc1cc(C(C)=O)c(O)c(C(=O)Nc2nn[nH]n2)c1	2	2.743
COc1cc(C#N)cc(C(=O)Nc2nn[nH]n2)c1O	2	2.716
COc1cccc(NC(=O)c2nn[nH]n2)c1O	5	3.07
O=C(Nc1nn[nH]n1)c1cc(Cl)ccc1O	0.1	1.38
CC(=O)c1ccc(O)c(C(=O)Nc2nn[nH]n2)c1	0.02	0.694
CC(=O)c1cc(S(N)(=O)=O)cc(C(=O)Nc2nn[nH]n2)c1O	0.2	1.814
CCC(=O)c1cc(CC)cc(NC(=O)c2nn[nH]n2)c1O	5	3.16
CCc1cc(NC(=O)c2nn[nH]n2)c(O)c(C(C)=O)c1	20	3.74
CC(=O)c1cc(C(C)(C)C)cc(C(=O)Nc2nn[nH]n2)c1O	0.4	2.084
O=C(Nc1nn[nH]n1)c1cc(Br)ccc1O	0.02	0.756
CSc1ccc(O)c(C(=O)Nc2nn[nH]n2)c1	0.2	1.701
CCC(=O)c1cc(CC)cc(C(=O)Nc2nn[nH]n2)c1O	0.75	2.34
CC(=O)c1cc(Br)cc(NC(=O)c2nn[nH]n2)c1O	2	2.814
COc1cc(C(C)(C)C)cc(C(=O)Nc2nn[nH]n2)c1O	0.1	1.464
CCC(=O)c1cc(C)cc(C(=O)Nc2nn[nH]n2)c1O	2	2.741
Cc1cc(NC(=O)c2nn[nH]n2)c(O)c(-c2nn[nH]n2)c1	1	2.455
CC(=O)Nc1cc(C(C)=O)c(O)c(C(=O)Nc2nn[nH]n2)c1	0.2	1.784
CCc1cc(NC(=O)c2nn[nH]n2)c(O)c(OC)c1	10	3.42
CCc1cc(C(=O)Nc2nn[nH]n2)c(O)c(/C(C)=N/O)c1	10	3.462
